The values below come from patent US12508306B2, “Compositions and methods of use thereof for treatment of metabolic diseases and related disorders” (Washington University, priority 2018, dated 2025).

For series [1], the system named is Arg2. The experiment in a line: Arg2 gene expression in cultured primary hepatocytes (RNA-seq, qPCR). In kind it is cell-based, murine. The text has this: AML12 cells (CRL-2254) were purchased directly from the American Type Culture Collection (ATCC) and propagated and maintained precisely per manufacturer specification. Primary hepatocyte cell isolation, culture and treatment Primary murine hepatocytes obtained from WT mice were isolated^24,25,31 and cultured and maintained in regular DMEM growth media (Sigma, #D5796) containing 10% FBS. For in vitro starvation experiments, “starved” media contained 1 g/L glucose and 0:5% FBS was used. Cultures were lysed in Trizol and subjected to downstream analysis. In vitro genetic knockdown was achieved via siRNA transfection using Lipofectamine 3000 from Invitrogen (L3000015). Trehalose was obtained from Sigma Aldrich (St. Louis, MO) and was >97% purity by HPLC. Three percent trehalose water (w/v) fed ad libitum was used in all in vivo experiments.
Total RNA was prepared by homogenizing snap-frozen livers or cultured hepatocytes in Trizol reagent (Invitrogen #15596026) according to the manufacturer's protocol. cDNA was prepared using Qiagen Quantitect reverse transcriptase kit (Qiagen #205310). Real-time qPCR was performed with Step-One Plus Real-Time PCR System (Applied Biosystems) using SYBR Green master Mix Reagent (Applied Biosystems) and specific primer pairs. Relative gene expression was calculated by a comparative method using values normalized to the expression of an internal control gene.

For series [2], the system named is Arg2. The experiment in a line: Hepatic Arg2 expression by qPCR and immunoblot in mice subjected to trehalose feeding. It is filed as in vivo. Conditions: mice fed 3% trehalose water ad libitum, 5 days. The text has this:
AML12 cells (CRL-2254) were purchased directly from the American Type Culture Collection (ATCC) and propagated and maintained precisely per manufacturer specification. Primary hepatocyte cell isolation, culture and treatment Primary murine hepatocytes obtained from WT mice were isolated^24,25,31 and cultured and maintained in regular DMEM growth media (Sigma, #D5796) containing 10% FBS. For in vitro starvation experiments, “starved” media contained 1 g/L glucose and 0:5% FBS was used. Cultures were lysed in Trizol and subjected to downstream analysis. In vitro genetic knockdown was achieved via siRNA transfection using Lipofectamine 3000 from Invitrogen (L3000015). […]
Total RNA was prepared by homogenizing snap-frozen livers or cultured hepatocytes in Trizol reagent (Invitrogen #15596026) according to the manufacturer's protocol. cDNA was prepared using Qiagen Quantitect reverse transcriptase kit (Qiagen #205310). […] Relative gene expression was calculated by a comparative method using values normalized to the expression of an internal control gene.
Tissues were homogenized in RIPA buffer supplemented with protease and phosphatase inhibitors (Thermo Scientific). […] Protein concentration was determined by BCA Assay Kit (Thermo Scientific) and was adjusted to 2 mg/mL. […] Protein expression levels were quantified with Image Lab software and normalized to the levels of β-actin or GAPDH.
(In qPCR the cycle at which signal appears reflects the starting amount.)

The conditions of series [3]: read-out: Km for arginine; cited from earlier work.

`OCC1OC(OC2OC(CO)C(O)C(O)C2O)C(O)C(O)C1O` (centres unmarked) [Lactotrehalose, lactotrehalose]: the “Arg2 expression compared with native trehalose at equivalent doses” value in series [1] (primary hepatocytes, 10 mM and 100 mM) was “significantly enhanced”.
Take `OC[C@H]1O[C@H](O[C@H]2O[C@H](CO)[C@@H](O)[C@H](O)[C@H]2O)[C@H](O)[C@@H](O)[C@@H]1O` [trehalose]: the “hepatic Arg2 mRNA and protein” value in series [2] is “induced Arg2 mRNA and protein”. Also, the “Arg2 induction by qPCR and immunoblot” value in series [1] (primary hepatocytes, 1 mM, 10 mM, and 100 mM, within 24 h) was “rapid, dose-dependent, cell autonomous Arg2 induction”. In series [1] (trehalose-treated primary hepatocytes relative to untreated hepatocytes), the “Arg2 expression by RNA-seq” value is “among the most highly upregulated genes”.

B1: human arginase 1: human arginase 1 enzyme (protein, UniProt P05089 1-322, looked up)
Arginase-1: MSAKSRTIGIIGAPFSKGQPRGGVEEGPTVLRKAGLLEKLKEQECDVKDYGDLPFADIPNDSPFQIVKNPRSVGKASEQLAGKVAEVKKNGRISLVLGGDHSLAIGSISGHARVHPDLGVIWVDAHTDINTPLTTTSGNLHGQPVSFLLKELKGKIPDVPGFSWVTPCISAKDIVYIGLRDVDPGEHYILKTLGIKYFSMTEVDRLGIGKVMEETLSYLLGRKKRPIHLSFDVDGLDPSFTPATGTPVVGGLTYREGLYITEEIYKTGLLSGLDIMEVNPSLGKTPEEVTRTVNTAVAITLACFGLAREGNHKPIDYLNPPK
B1: the Km in series [3] was ~45 mM.

The Km is the substrate concentration at which the rate is half of its maximum.
